Test results as given in patent publication US12077503B2, “Substituted cyclic amides and their use as herbicides” (FMC CORPORATION, priority 2015, dated 2024).

How the values were obtained:
Assay type in all cases: in vivo
Kochia (Kochia scoparia) [1] = assay: Test A preemergence; details: Bassia scoparia, pre-emergence, 240 h
In short: (§1)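 Preemergence soil spray on seeded pots or post-emergence spray on 1–2 leaf plants, in loam–sand blend. Greenhouse ~10 d. Visual rating 0–100 against untreated plants.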

[2] = system: barnyardgrass (Echinochloa crus-galli); assay: Test A preemergence; details: Echinochloa crus-galli, pre-emergence, 240 h
In short: as §1

[3] = system: giant foxtail (Setaria faberii); assay: Test A preemergence; details: Setaria faberi, pre-emergence, 240 h
In short: as §1

[4] = system: pigweed (Amaranthus retroflexus); assay: Test A preemergence; details: Amaranthus retroflexus, pre-emergence, 240 h
[5] = system: ragweed (common ragweed, Ambrosia elatior); assay: Test A preemergence; details: Ambrosia artemisiifolia, pre-emergence, 240 h
In short: as §1

[6] = system: ryegrass, Italian (Italian ryegrass, Lolium multiflorum); assay: Test A preemergence; details: Lolium multiflorum, pre-emergence, 240 h
In short: as §1

[7] = system: Galium (catchweed bedstraw, Galium aparine); assay: Test A postemergence; details: Galium, post-emergence, 240 h, postemergence, approx. 10 d
In short: as §1

Kochia (Kochia scoparia) [8] = assay: Test A postemergence; details: Bassia scoparia, post-emergence, 240 h, postemergence, approx. 10 d
In short: as §1

[9] = system: barnyardgrass (Echinochloa crus-galli); assay: Test A postemergence; details: Echinochloa crus-galli, post-emergence, 240 h, postemergence, approx. 10 d
In short: as §1

[10] = system: blackgrass (Alopecurus myosuroides); assay: Test A postemergence; details: Alopecurus myosuroides, post-emergence, 240 h, postemergence, approx. 10 d
In short: as §1

corn (Zea mays) = assay: Test A postemergence; details: Zea mays, post-emergence, 240 h, postemergence, approx. 10 d
In short: as §1

[11] = system: giant foxtail (Setaria faberii); assay: Test A postemergence; details: Setaria faberi, post-emergence, 240 h, postemergence, approx. 10 d
In short: as §1

[12] = system: pigweed (Amaranthus retroflexus); assay: Test A postemergence; details: Amaranthus retroflexus, post-emergence, 240 h, 125 g ai/ha, postemergence; visual injury on 0 to 100 scale (0 no effect, 100 complete control), approx. 10 d; read-out: Pigweed plant response rating
In short: as §1

[13] = system: ragweed (common ragweed, Ambrosia elatior); assay: Test A postemergence; details: Ambrosia artemisiifolia, post-emergence, 240 h, 125 g ai/ha, postemergence; visual injury on 0 to 100 scale (0 no effect, 100 complete control), approx. 10 d; read-out: Ragweed plant response rating
In short: as §1

[14] = system: ryegrass, Italian (Italian ryegrass, Lolium multiflorum); assay: Test A postemergence; details: Lolium multiflorum, post-emergence, 240 h, 125 g ai/ha, postemergence; visual injury on 0 to 100 scale (0 no effect, 100 complete control), approx. 10 d; read-out: Ryegrass, Italian plant response rating
In short: as §1

[15] = system: wheat (Triticum aestivum); assay: Test A postemergence; details: Triticum aestivum, post-emergence, 240 h, 125 g ai/ha, postemergence; visual injury on 0 to 100 scale (0 no effect, 100 complete control), approx. 10 d; read-out: Wheat plant response rating
In short: as §1

Structure (SMILES): O=C(Nc1ccccc1F)[C@H]1C(=S)NC[C@@H]1c1ccc(C(F)(F)F)cc1 (racemic) [Compound 1047]
- pest or weed control at 125 g/ha (Kochia (Kochia scoparia) [1]; 125 g ai/ha, Preemergence, visual injury rating after approximately 10 d, read-out: Kochia plant response rating (0 to 100 scale, 0 is no effect, 100 is complete control)): 60%
- pest or weed control at 500 g/ha (Kochia (Kochia scoparia) [1]; 500 g ai/ha, preemergence, visual injury rating about 10 d after treatment, 0 to 100 scale (0 no effect, 100 complete control), read-out: Kochia plant response rating): 80%
- pest or weed control at 125 g/ha ([2]; 125 g ai/ha, Preemergence, visual injury rating after approximately 10 d, read-out: Barnyardgrass plant response rating (0 to 100 scale, 0 is no effect, 100 is complete control)): 30%
- pest or weed control at 500 g/ha ([2]; 500 g ai/ha, preemergence, visual injury rating about 10 d after treatment, 0 to 100 scale (0 no effect, 100 complete control), read-out: Barnyardgrass plant response rating): 80%
- pest or weed control at 125 g/ha ([3]; 125 g ai/ha, Preemergence, visual injury rating after approximately 10 d, read-out: Foxtail, Giant plant response rating (0 to 100 scale, 0 is no effect, 100 is complete control)): 60%
- pest or weed control at 500 g/ha ([3]; 500 g ai/ha, preemergence, visual injury rating about 10 d after treatment, 0 to 100 scale (0 no effect, 100 complete control), read-out: Foxtail, Giant plant response rating): 80%
- pest or weed control at 125 g/ha ([4]; 125 g ai/ha, Preemergence, visual injury rating after approximately 10 d, read-out: Pigweed plant response rating (0 to 100 scale, 0 is no effect, 100 is complete control)): 0%
- pest or weed control at 500 g/ha ([4]; 500 g ai/ha, preemergence, visual injury rating about 10 d after treatment, 0 to 100 scale (0 no effect, 100 complete control), read-out: Pigweed plant response rating): 20%
- pest or weed control at 125 g/ha ([5]; 125 g ai/ha, Preemergence, visual injury rating after approximately 10 d, read-out: Ragweed plant response rating (0 to 100 scale, 0 is no effect, 100 is complete control)): 40%
- pest or weed control at 500 g/ha ([5]; 500 g ai/ha, preemergence, visual injury rating about 10 d after treatment, 0 to 100 scale (0 no effect, 100 complete control), read-out: Ragweed plant response rating): 60%
- pest or weed control at 125 g/ha ([6]; 125 g ai/ha, Preemergence, visual injury rating after approximately 10 d, read-out: Ryegrass, Italian plant response rating (0 to 100 scale, 0 is no effect, 100 is complete control)): 0%
- pest or weed control at 500 g/ha ([6]; 500 g ai/ha, preemergence, visual injury rating about 10 d after treatment, 0 to 100 scale (0 no effect, 100 complete control), read-out: Ryegrass, Italian plant response rating): 0%
- pest or weed control at 125 g/ha ([7]; 125 g ai/ha, visual injury on 0 to 100 scale (0 no effect, 100 complete control), read-out: Galium plant response rating): 0%
- pest or weed control at 500 g/ha ([7]; 500 g ai/ha, visual injury, 0 to 100 scale (0 no effect, 100 complete control), read-out: Plant response rating, Galium): 50%
- pest or weed control at 125 g/ha (Kochia (Kochia scoparia) [8]; 125 g ai/ha, visual injury on 0 to 100 scale (0 no effect, 100 complete control), read-out: Kochia plant response rating): 0%
- pest or weed control at 500 g/ha (Kochia (Kochia scoparia) [8]; 500 g ai/ha, visual injury, 0 to 100 scale (0 no effect, 100 complete control), read-out: Plant response rating, Kochia): 20%
- pest or weed control at 125 g/ha ([9]; 125 g ai/ha, visual injury on 0 to 100 scale (0 no effect, 100 complete control), read-out: Barnyardgrass plant response rating): 40%
- pest or weed control at 500 g/ha ([9]; 500 g ai/ha, visual injury, 0 to 100 scale (0 no effect, 100 complete control), read-out: Plant response rating, Barnyardgrass): 80%
- pest or weed control at 125 g/ha ([10]; 125 g ai/ha, visual injury on 0 to 100 scale (0 no effect, 100 complete control), read-out: Blackgrass plant response rating): 0%
- pest or weed control at 500 g/ha ([10]; 500 g ai/ha, visual injury, 0 to 100 scale (0 no effect, 100 complete control), read-out: Plant response rating, Blackgrass): 0%
- plant injury at 125 g/ha (corn (Zea mays); 125 g ai/ha, visual injury on 0 to 100 scale (0 no effect, 100 complete control), read-out: Corn plant response rating): 0%
- Corn plant response rating (crop injury, 0 = no effect, 100 = complete kill) at 500 g/ha (corn (Zea mays); 500 g ai/ha, visual injury, 0 to 100 scale (0 no effect, 100 complete control)): 0%
- pest or weed control at 125 g/ha ([11]; 125 g ai/ha, visual injury on 0 to 100 scale (0 no effect, 100 complete control), read-out: Foxtail, Giant plant response rating): 50%
- pest or weed control at 500 g/ha ([11]; 500 g ai/ha, visual injury, 0 to 100 scale (0 no effect, 100 complete control), read-out: Plant response rating, Foxtail, Giant): 80%
- pest or weed control at 125 g/ha [12]: 0%
- pest or weed control at 125 g/ha [13]: 0%
- pest or weed control at 125 g/ha [14]: 0%
- plant injury at 125 g/ha [15]: 0%
